The experiment deals with 186277-243-T-J2-PDC complex spheroid viability. Put plainly: Anticancer human tumor 186277-243-T-J2-PDC patient-derived colon adenocarcinoma cell line growth inhibition [GQUAD]. The conditions noted are these: for viability, T/C: stronger effect = lower value. The source says: DNA G-quadruplex Stabilizer Agents in Combinations in Complex Spheroids
A high-throughput screen of multi-cell type tumor spheroids was designed to identify active combinations of DNA G-quadruplex stabilizer agents and targeted small molecules. Complex spheroids include a stromal component modeled by human endothelial cells (HUVEC) and fibroblasts modeled by human mesenchymal stem cells (MSCs). The concentration ranges selected for each drug and investigational agent were based upon clinically achievable concentrations if the clinical Cmax of the agent was known.
Compounds. The drugs and investigational agents: pidnarulex (CX-5461; NSC782164), APTO-253 (NSC789042), BRACO-19 (NSC847499), peposertib (NSC802822), ceralasertib (NSC780249), elimusertib (NSC800525), camonsertib (NSC841442), AZD-1390 (NSC803789), olaparib (NSC753686), talazoparib (NSC767125), ART-558 (NSC835418), sotorasib (NSC818433), MRTX-1133 (NSC836407), SN-38 (NSC673596), topotecan (NSC609699), etoposide (NSC141540), doxorubicin (NSC123127), gemcitabine (NSC613327), 5-fluorouracil (NSC19893), paclitaxel (NSC125973), vemurafenib (NSC761431), panobinostat (NSC761190), R-306465 (JNJ-16241199; NSC773264), adavosertib (NSC754352), TP-3654 (NSC805149), carboplatin (NSC241240), KSQ-4279 (NSC840948), and staurosporine (NSC755774) were obtained from the National Cancer Institute (NCI) Developmental Therapeutics Program Chemical Repository (34). The FDA-approved anticancer drug set is available from the NCI Developmental Therapeutics Program. […] The stock solutions were prepared in dimethyl sulfoxide (DMSO, Sigma-Aldrich, St. Louis, MO, cat. D2650) at 800-fold the tested concentration and stored at -70 degrees C prior to their use. All drugs and investigational agents were tested over a range starting from a high concentration at or near the clinical Cmax and decreasing in half-log increments. If the clinical Cmax for an agent had not been determined, the highest concentration tested was 10 microM.
2.3 Cell Culture. All cells were maintained in an incubator at 37 degrees C and 5% CO2 with 95% humidity. The PDC lines were cultured according to standard operating procedures established by the NCI PDMR. All PDCs were thawed and cultured in Matrigel-coated flasks prepared with a working solution of 1X Ham's F-12 nutrient mix, without supplementation (Invitrogen, cat. 11765054), 100 U/mL penicillin-streptomycin (Invitrogen, cat. 15140122), and 2.5% Matrigel (Corning Inc., cat. 354248) for the first three passages. The 857933-349-R-J2-PDC line was cultured in 6C/Colon 1B media, which includes advanced DMEM/F-12 (Thermo Fisher Scientific, cat. 12634028), 10 mM HEPES (Thermo Fisher Scientific, cat. 15630080), 1X GlutaMAX supplement (Thermo Fisher Scientific, cat. 35050061), 0.1 mg/mL primocin (InvivoGen, cat. ant-pm-2), 10% defined fetal bovine serum, heat inactivated (HyClone Laboratories Inc., cat. SH30070.03HI), 50% L-WRN conditioned media (ATCC, cat. CRL-3276), 1.25 mM N-Acetyl-L-cysteine (Sigma-Aldrich, cat. A9165), 10 mM nicotinamide (Sigma-Aldrich, cat. N0636), 1X B-27 supplement (Thermo Fisher Scientific, cat. 17504044), 1X N-2 supplement (Thermo Fisher Scientific, cat. 17502048), 10 microM Y-27632 dihydrochloride (Tocris Bioscience, cat. 1254), and 50 ng/mL human EGF recombinant protein (Thermo Fisher Scientific, cat. PHG0311). The 485176-168-R4-J1-PDC line was cultured in Panc media, which includes all 6C/Colon 1B media components plus 100 ng/mL human FGF-10 (Thermo Fisher Scientific, cat. 100-26), 500 nM SB-431542 (Selleckchem, cat. S1067), and gastrin (Tocris, cat. 3006).
[…]

Here are results for four molecules from PubChem BioAssay AID2060512 (Molecular Pharmacology Branch, DTP, NCI, 2025).

Where “and” joins values, the source holds several entries; their conditions need not be identical. Equal entries are not always repeated.
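Further: spheroids exposed to drugs for 7 days.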

The IC50 is the point on the concentration scale where inhibition reaches its midpoint. For orientation: viability, T/C means the result in the treated group divided by that in the control group, in per cent. `COc1ccc([C@@H](O)c2cc(-c3ncnc4cc(N5CCOCC5)ccc34)c(F)cc2Cl)nn1` + Cc1[nH]c2ccc(F)cc2c1-c1nc2c3cccnc3c3ncccc3c2[nH]1: the IC50 (curve of first compound, second compound 0.0316 µM) came out at 4.92 µM; the IC50 (curve of first compound, second compound 0.1 µM) is 6.89 µM; the IC50 (curve of first compound, second compound 0.316 µM) amounted to 6.47 µM; the IC50 (curve of first compound, second compound 1 µM) was found to be 5.92 µM; the IC50 (curve of first compound, second compound 3.16 µM) was found to be 4.99 µM; the IC50 (curve of first compound, second compound 10 µM) was 5.74 µM. Besides, the viability, T/C was 95.7% (second compound 0.0316 µM, first compound 0.0316 µM); 101% (second compound 0.0316 µM, first compound 0.1 µM); 97.2% (second compound 0.0316 µM, first compound 0.316 µM); 80.9% (second compound 0.0316 µM, first compound 1 µM); 66.3% (second compound 0.0316 µM, first compound 3.16 µM); 25.9% (second compound 0.0316 µM, first compound 10 µM). The viability, T/C (second compound 0.1 µM, first compound 0.0316 µM) was 94.5%; the viability, T/C (second compound 0.1 µM, first compound 0.1 µM) was 89.9%; the viability, T/C (second compound 0.1 µM, first compound 0.316 µM) was 104%; the viability, T/C (second compound 0.1 µM, first compound 1 µM) was 99.5%; the viability, T/C (second compound 0.1 µM, first compound 3.16 µM) is 85.2%; the viability, T/C (second compound 0.1 µM, first compound 10 µM) was 33.1%. The viability, T/C runs as follows: (second compound 0.316 µM, first compound 0.0316 µM) 105%; (second compound 0.316 µM, first compound 0.1 µM) 94.8%; (second compound 0.316 µM, first compound 0.316 µM) 103%; (second compound 0.316 µM, first compound 1 µM) 106%; (second compound 0.316 µM, first compound 3.16 µM) 81.5%; (second compound 0.316 µM, first compound 10 µM) 30.9%. In addition, the viability, T/C (second compound 1 µM, first compound 0.0316 µM) was 89.2%; the viability, T/C (second compound 1 µM, first compound 0.1 µM) was 90%; the viability, T/C (second compound 1 µM, first compound 0.316 µM) was 115%; the viability, T/C (second compound 1 µM, first compound 1 µM) is 102%; the viability, T/C (second compound 1 µM, first compound 3.16 µM) is 71.2%; the viability, T/C (second compound 1 µM, first compound 10 µM) is 32.4%. Further, the viability, T/C by setting is: (second compound 3.16 µM, first compound 0.0316 µM) 93.4%; (second compound 3.16 µM, first compound 0.1 µM) 92.7%; (second compound 3.16 µM, first compound 0.316 µM) 112%; (second compound 3.16 µM, first compound 1 µM) 85.3%; (second compound 3.16 µM, first compound 3.16 µM) 68.6%; (second compound 3.16 µM, first compound 10 µM) 23.2%. The viability, T/C was 93.4% (second compound 10 µM, first compound 0.0316 µM); 91.4% (second compound 10 µM, first compound 0.1 µM); 114% (second compound 10 µM, first compound 0.316 µM); 88.8% (second compound 10 µM, first compound 1 µM); 66.7% (second compound 10 µM, first compound 3.16 µM); 34.9% (second compound 10 µM, first compound 10 µM).
`Cc1[nH]c2ccccc2c1CCNCc1ccc(/C=C/C(=O)NO)cc1`: the viability, T/C reads like this: (compound 0.000999 µM) 107% and 92.7% and 99%; (compound 0.00316 µM) 89.4% and 96.9% and 90%; (compound 0.00999 µM) 92.2% and 94.9% and 101%; (compound 0.0316 µM) 60% and 92.1% and 97.2%; (compound 0.0999 µM) 18.4% and 8.39% and 19.1%; (compound 0.316 µM) 0.49% and 2.16% and 2.64%. Where the note is “curve of compound”, the IC50 was 0.0419 µM and 0.0564 µM and 0.0632 µM.
Turning to `CC(C)(O)C1CCC(Nc2ccc3ncc(-c4cccc(C(F)(F)F)c4)n3n2)CC1` (stereo not drawn), the viability, T/C reads like this: (compound 0.0316 µM) 82.3% and 96.5% and 103%; (compound 0.1 µM) 106% and 97.7% and 92.2%; (compound 0.316 µM) 101% and 99.8% and 99.6%; (compound 1 µM) 83.7% and 85.5% and 105%; (compound 3.16 µM) 55.3% and 49% and 56.7%; (compound 10 µM) 46.4% and 46% and 50%. The IC50 (curve of compound) was 6.25 µM and 3.04 µM and > 10 µM.
`O=C(c1cc(Cc2n[nH]c(=O)c3ccccc23)ccc1F)N1CCN(C(=O)C2CC2)CC1`: the viability, T/C runs as follows: (compound 0.0316 µM) 102% and 105% and 100%; (compound 0.1 µM) 108% (2×) and 94.6%; (compound 0.316 µM) 96.4% and 112% and 87.3%; (compound 1 µM) 94.3% and 104% and 77.3%; (compound 3.16 µM) 93.3% and 92% and 82.2%; (compound 10 µM) 62.3% and 64.2% and 66.5%. The IC50 (curve of compound) is more than 10 µM.
